3 compounds from ChEMBL document CHEMBL1151016, “Synthesis and evaluation of 3-deoxy-D-manno-2-octulosonate-8-phosphate (KDO8P) synthase inhibitors” (Bioorg Med Chem Lett, 1997) can be followed below.

The test in a line: The compound was tested for inhibitory activity against KDO 8-P synthase by using a KDO 8-P synthase enzymatic assay.
The term IC50 denotes the concentration at which inhibition is half-maximal. Read a high IC50 as a need for much substance. `O=C(O)C1=C[C@H](OCC(O)P(=O)(O)O)[C@H](O)[C@H](O)C1` (stereo partly drawn) showed an IC50 of 3.8 mM.

In turn, `O=C(O)C1=C[C@H](OCCP(=O)(O)O)[C@H](O)[C@H](O)C1` returned an IC50 greater than 25 mM.

In turn, `O=P(O)(O)OC[C@H]1O[C@H](O)[C@H](O)[C@@H]1O` gave an IC50 of 4.3 mM.
